According to patent US12497411B2, “Muscarinic acetylcholine receptor subtype 4 antagonists in the treatment of anemia” (COLD SPRING HARBOR LABORATORY, priority 2019, dated 2025):

Columns and labels:
[1] = target: T1, human recombinant CHRM3 receptor (Homo sapiens, UniProt P20309); experiment: Radioligand binding assay, CHRM3; conditions: [3H]4-DAMP (0.2 nM), CHO cell membranes, 60 minutes at room temperature; read-out: Ki M3
T1 construct: expressed in transfected cells; host or cells: CHO cells (membranes)
Experimental: (§1) PD102807 and Compounds A-K at concentrations of 1×10^−9 M, 1×10^−8 M, 1×10^−7 M, 1×10^−6 M, and 1×10^−5 M were tested in standard binding assays with radioligands and cell membranes with receptors. Compound binding was calculated as a percent inhibition of the binding of a radioactively labeled ligand specific for each target, and the Ki values were determined. For CHRM1, the binding assay was performed using [^3H]pirenzepine (2 nM) as a radioligand and membranes of CHO cells with human recombinant CHRM1 receptor. The incubation time was 60 minutes at room temperature. For CHRM2, the binding assay was performed using [^3H]AF-DX 384 (2 nM) as a radioligand and membranes of CHO cells with human recombinant CHRM2 receptor. The incubation time was also 60 minutes at room temperature. For CHRM3, the binding assay was performed using [^3H]4-DAMP (0.2 nM) as a radioligand and membranes of CHO cells with human recombinant CHRM3 receptor. The incubation time was also 60 minutes at room temperature. For CHRM4, the binding assay was performed using [^3H]4-DAMP (0.2 nM) as a radioligand and membranes of CHO cells with human recombinant CHRM4 receptor. The incubation time was also 60 minutes at room temperature. For CHRM5, the binding assay was performed using [^3H]4-DAMP (0.3 nM) as a radioligand and membranes of CHO cells with human recombinant CHRM5 receptor. The incubation time was also 60 minutes at room temperature.

[2] = target: T2, human recombinant CHRM1 receptor (Homo sapiens, UniProt P11229); experiment: Radioligand binding assay, CHRM1; conditions: [3H]pirenzepine (2 nM), CHO cell membranes, 60 minutes at room temperature; read-out: Ki M1
T2 construct: expressed in transfected cells; host or cells: CHO cells (membranes)
T2 sequence (P11229 1-460): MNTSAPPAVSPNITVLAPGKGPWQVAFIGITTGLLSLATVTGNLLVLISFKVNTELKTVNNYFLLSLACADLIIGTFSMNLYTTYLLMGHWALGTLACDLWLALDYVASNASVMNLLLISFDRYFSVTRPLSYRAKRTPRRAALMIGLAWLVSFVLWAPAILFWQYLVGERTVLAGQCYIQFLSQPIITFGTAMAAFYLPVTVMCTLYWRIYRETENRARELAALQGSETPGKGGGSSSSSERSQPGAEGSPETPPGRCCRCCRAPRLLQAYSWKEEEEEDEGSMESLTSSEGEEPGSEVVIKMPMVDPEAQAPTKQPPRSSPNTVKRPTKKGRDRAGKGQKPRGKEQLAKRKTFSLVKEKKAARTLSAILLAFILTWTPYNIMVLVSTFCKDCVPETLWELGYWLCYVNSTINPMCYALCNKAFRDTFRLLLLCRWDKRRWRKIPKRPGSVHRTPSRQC
Experimental: as §1

[3] = target: T3, human recombinant CHRM2 receptor (Homo sapiens, UniProt P08172); experiment: Radioligand binding assay, CHRM2; conditions: [3H]AF-DX 384 (2 nM), CHO cell membranes, 60 minutes at room temperature; read-out: Ki M2
T3 construct: expressed in transfected cells; host or cells: CHO cells (membranes)
T3 sequence (P08172 1-466): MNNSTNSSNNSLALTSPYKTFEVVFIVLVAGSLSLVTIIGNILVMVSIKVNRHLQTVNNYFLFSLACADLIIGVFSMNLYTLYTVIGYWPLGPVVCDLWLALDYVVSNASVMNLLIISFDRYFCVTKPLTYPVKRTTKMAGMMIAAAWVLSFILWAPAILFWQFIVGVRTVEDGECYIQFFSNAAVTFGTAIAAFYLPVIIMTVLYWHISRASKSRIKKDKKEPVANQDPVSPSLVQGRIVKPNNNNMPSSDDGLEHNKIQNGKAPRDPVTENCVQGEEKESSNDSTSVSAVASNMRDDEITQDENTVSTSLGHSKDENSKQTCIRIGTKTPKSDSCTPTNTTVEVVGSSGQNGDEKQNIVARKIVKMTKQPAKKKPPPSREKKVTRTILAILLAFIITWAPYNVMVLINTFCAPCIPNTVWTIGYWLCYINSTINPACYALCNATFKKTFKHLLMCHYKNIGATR
Experimental: as §1

[4] = Pharmacokinetic profile (plasma) and brain penetration assay; assay type: in vivo, mouse; conditions: mice, intraperitoneal injection, plasma and brain by LC-MS/MS
Experimental: PD102807 and Compounds A and B were intraperitoneally injected into mice. Blood was collected at each time point, and transferred tubes containing anticoagulant were centrifuged to obtain plasma. Brain samples were collected each time point and then quick frozen in liquid nitrogen and kept at −75±15° C. Brain samples were homogenized. Concentrations of PD102807 and Compound A and B in the plasma and brain samples were analyzed using the LC-MS/MS method. […] Compound G was intraperitoneally injected into mice. Blood was collected at each time point, and transferred tubes containing anticoagulant were centrifuged to obtain plasma. Brain samples were collected each time point and then quick frozen in liquid nitrogen and kept at −75±15° C. Brain samples were homogenized. Concentrations of Compound G in the plasma and brain samples were analyzed using the LC-MS/MS method.

[5] = target: T4, CHRM4 (Homo sapiens, UniProt P08173); experiment: Radioligand binding assay, CHRM4; set-up: expressed in transfected cells; host or cells: CHO cells (membranes); conditions: [3H]4-DAMP (0.2 nM), CHO cell membranes, 60 minutes at room temperature; read-out: Ki M4
T4 sequence (P08173 1-479): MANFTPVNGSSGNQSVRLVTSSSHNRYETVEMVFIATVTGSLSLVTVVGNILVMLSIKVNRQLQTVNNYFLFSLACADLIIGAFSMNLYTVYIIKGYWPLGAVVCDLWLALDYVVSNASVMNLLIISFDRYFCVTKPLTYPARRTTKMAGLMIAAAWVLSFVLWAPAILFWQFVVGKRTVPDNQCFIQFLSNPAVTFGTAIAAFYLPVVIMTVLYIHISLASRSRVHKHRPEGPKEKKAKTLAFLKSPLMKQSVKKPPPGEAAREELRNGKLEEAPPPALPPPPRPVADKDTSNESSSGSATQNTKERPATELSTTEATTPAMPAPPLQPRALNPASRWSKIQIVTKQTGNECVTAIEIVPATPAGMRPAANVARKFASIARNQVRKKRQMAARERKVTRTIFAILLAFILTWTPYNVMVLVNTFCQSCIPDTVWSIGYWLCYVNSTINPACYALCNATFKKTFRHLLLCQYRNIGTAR
Experimental: as §1

[6] = test system: Mouse BFU-Es; experiment: Primary mouse BFU-E culture assay (cell expansion); assay type: cell-based
Experimental: (§2) Primary mouse BFU-Es were isolated from mouse embryonic day 14.5 (E14.5) fetal liver and cultured in StemSpan serum-free expansion medium, and the numbers of cells formed were counted during culture. BFU-Es were infected with either viruses encoding control shRNA or viruses encoding shRNAs targeting Chrm4, and numbers of GFP+ cells formed during culture were counted. DMSO or 25 mg/kg oxyphenonium bromide was intraperitoneally injected into the hemolysis mouse model, Mx1-cre Srsf2 P95H/WT MDS mouse model, and aging mouse model. Complete blood count (CBC) was performed after compound injection. CREB ChIP-Seq was performed on BFU-Es after culture with 100 μM oxyphenonium bromide for 45 minutes. RNA-Seq was performed in BFU-Es after being cultured with DMSO or oxyphenonium bromide for 3 days.
BFU-Es were isolated from mouse embryonic day 14.5 fetal liver using fluorescence-activated cell sorting (FACS) method previously described (Flygare et al., Blood 117, 3435-3444 (2011)). BFU-Es were cultured in StemSpan SFEM II medium containing rmSCF (100 ng/ml), EPO (2 U/ml), rmIGF-1 (40 ng/ml), dexamethasone (1 nmol/ml or 10 nmol/ml), oxyphenonium bromide ([…]), and orphenadrine citrate (1 μmol/ml).
BFU-Es were isolated from mouse embryonic day 14.5 fetal liver using fluorescence-activated cell sorting (FACS) method. BFU-Es were cultured in StemSpan SFEM II medium containing rmSCF (100 ng/ml), EPO (2 U/ml), rmIGF-1 (40 ng/ml), dexamethasone (1 nM), together with either DMSO, PCS1055 (5 nM), or PD102807 (3 nM). Numbers of cell formed were counted during in vitro culture.
FIGS. 7 and 8 show the results of the primary BFU-E culture assay. […] Highly purified BFU-Es were isolated as lin-Ter-119-CD16/CD32-Sca-1-CD41-c-Kit+CD71/Cd24a^10% low population using the fluorescence-activated cell sorting (FACS) method. BFU-Es were cultured in medium containing rmSCF, EPO, and rmIGF-1, in the presence of PD102807 or Compounds A-K at indicated concentrations.

[7] = test system: Mouse BFU-Es; experiment: BFU-E colony formation assay; assay type: cell-based; conditions: Day 6 cultured BFU-Es plated on methylcellulose, colonies counted 9 days later
[8] = test system: Mouse BFU-Es; experiment: Ter119 antibody staining, flow cytometry; assay type: cell-based; conditions: with or without oxyphenonium bromide, after 12 days of culture
[9] = test system: Human CD34+ hematopoietic stem and progenitor cells; experiment: Human CD34+ cell culture and counting; assay type: cell-based; conditions: human CD34+ HSPC culture, oxyphenonium bromide (200 μM)
Experimental: Human CD34+ hematopoietic stem and progenitor cells (HSPCs) were cultured in StemSpan™ SFEM medium containing rhSCF (20 ng/ml), rhIL-3 (5 ng/ml) and EPO (1 U/ml) with various concentrations of dexamethasone and oxyphenonium. Total numbers of cells were counted using a flow-cytometer. For colony formation assay, day 8 cultured cells were plated into methylcellulose medium MethoCult™ H4034 Optimum and BFU-E colonies were counted after 13 days.

[10] = test system: phosphorylated CREB in BFU-Es; experiment: Phospho-CREB immunofluorescence; assay type: cell-based, mouse; conditions: 100 μM oxyphenonium, 45 to 60 min
Experimental: Freshly isolated BFU-Es were serum starved for 1 hour and treated with either DMSO or 100 μM oxyphenonium for 45 to 60 min. 10^4 cells were collected on Poly L-Lysine coated slides using cytospin. Cells were fixed with 2% paraformaldehyde for 15 min, followed with permeabilization using 0.1% Triton X-100 for 15 min and with 2% BSA solution block for 30 min. Cells were incubated with phospho-CREB antibody (phospho […], Abeam, ab32096, 1:250) in 2% BSA for 1 hour and then incubated with FITC conjugated goat anti-mouse secondary antibody (Abcam, ab97022, 1:500) and FITC conjugated goat anti-rabbit secondary antibody (Abcam, ab97050, 1:500) in 2% BSA solution for 30 min. Cells were then incubated with DAPI for 5 min and then mounted with mounting solution.

[11] = test system: hemolysis, MDS, and aging mouse models; experiment: Hemolysis, MDS and aging anemia mouse models (oxyphenonium bromide); assay type: in vivo; conditions: 25 mg/kg intraperitoneally
Experimental: as §2
4-6 weeks old C57bl/6 mice were intraperitoneally injected with either control DMSO or compound every day for 3 days. On day 4, mice were intraperitoneally injected with 60 mg/kg PHZ. Mice were then intraperitoneally injected with either compound or control DMSO every day for another 3 days. Peripheral blood samples were collected retro-orbitally using heparinized capillary tubes in blood collection tubes with K2-EDTA. CBC was performed using Hemavet® 950. […]

T1 sequence (P20309 whole entry): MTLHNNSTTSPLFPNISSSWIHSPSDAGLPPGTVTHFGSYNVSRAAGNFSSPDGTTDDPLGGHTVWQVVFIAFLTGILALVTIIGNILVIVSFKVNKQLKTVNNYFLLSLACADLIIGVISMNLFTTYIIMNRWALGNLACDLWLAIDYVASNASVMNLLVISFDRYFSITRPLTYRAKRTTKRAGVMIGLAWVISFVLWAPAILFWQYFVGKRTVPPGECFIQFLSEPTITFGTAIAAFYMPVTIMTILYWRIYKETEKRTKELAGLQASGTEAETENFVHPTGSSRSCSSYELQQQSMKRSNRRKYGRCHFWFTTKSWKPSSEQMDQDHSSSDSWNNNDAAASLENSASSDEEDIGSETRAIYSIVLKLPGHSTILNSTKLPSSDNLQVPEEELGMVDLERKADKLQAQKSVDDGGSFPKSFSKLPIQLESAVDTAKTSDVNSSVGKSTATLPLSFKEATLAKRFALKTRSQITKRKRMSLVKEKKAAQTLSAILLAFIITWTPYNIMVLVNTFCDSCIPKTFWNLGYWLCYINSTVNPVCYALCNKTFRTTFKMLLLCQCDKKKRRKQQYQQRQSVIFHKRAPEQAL

Ki [1] | Ki [2] | Ki [3] | brain penetration in comparison to PD102807 [4] | Ki [5] | SMILES | production of more erythrocytes from BFU-E ([6]; 100 μM oxyphenonium bromide, vs culture without compound) | BFU-E expansion (test of GPCR agonists and antagonists) ([6]; mouse BFU-E culture) | formation of BFU-E colonies [7] | percentage of Ter119+ differentiated cells [8] | expansion of erythroid cells [9] | nuclear localization of phosphorylated CREB [10] | correction of anemia in vivo [11]
400 nM | 4400 nM | 760 nM | reduced brain penetration | 1500 nM | CCOC(=O)c1c(C)n(C)c2ccc(OC)c(C[N+]3(C)CCc4cc(OC)ccc4C3)c12.[I-] (stereo not drawn) [Compound G, 2-((3-(ethoxycarbonyl)-5-methoxy-1,2-dimethyl-1H-indol-4-yl)methyl)-6-methoxy-2-methyl-1,2,3,4-tetrahydroisoquinolin-2-ium Iodide] |  |  |  |  |  |  | 
 |  |  |  |  | CC[N+](C)(CC)CCOC(=O)C(O)(c1ccccc1)C1CCCCC1 (stereo not drawn) [oxyphenonium bromide] | ~10 fold | triggered BFU-E expansion | ~2 fold | no difference | 2 to 4 fold | increase in nuclear localization | corrects anemia in vivo
